Experimental data: EP0176999A2, “Amino acid derivatives, process for their preparation and pharmaceutical compositions” (BOEHRINGER INGELHEIM KG, priority 1984, dated 1986)

Tests used:
[1] = biological target: T1, Angiotensin I Converting Enzym (Oryctolagus cuniculus, UniProt P12822); assay: Inhibition of angiotensin I converting enzyme in vitro; assay type: biochemical; details: inhibitor concentration at which the enzyme is 50 % inhibited (Cheung, Cushman method), read-out: Hemmaktivität IC50
T1 sequence (P12822 34-1310): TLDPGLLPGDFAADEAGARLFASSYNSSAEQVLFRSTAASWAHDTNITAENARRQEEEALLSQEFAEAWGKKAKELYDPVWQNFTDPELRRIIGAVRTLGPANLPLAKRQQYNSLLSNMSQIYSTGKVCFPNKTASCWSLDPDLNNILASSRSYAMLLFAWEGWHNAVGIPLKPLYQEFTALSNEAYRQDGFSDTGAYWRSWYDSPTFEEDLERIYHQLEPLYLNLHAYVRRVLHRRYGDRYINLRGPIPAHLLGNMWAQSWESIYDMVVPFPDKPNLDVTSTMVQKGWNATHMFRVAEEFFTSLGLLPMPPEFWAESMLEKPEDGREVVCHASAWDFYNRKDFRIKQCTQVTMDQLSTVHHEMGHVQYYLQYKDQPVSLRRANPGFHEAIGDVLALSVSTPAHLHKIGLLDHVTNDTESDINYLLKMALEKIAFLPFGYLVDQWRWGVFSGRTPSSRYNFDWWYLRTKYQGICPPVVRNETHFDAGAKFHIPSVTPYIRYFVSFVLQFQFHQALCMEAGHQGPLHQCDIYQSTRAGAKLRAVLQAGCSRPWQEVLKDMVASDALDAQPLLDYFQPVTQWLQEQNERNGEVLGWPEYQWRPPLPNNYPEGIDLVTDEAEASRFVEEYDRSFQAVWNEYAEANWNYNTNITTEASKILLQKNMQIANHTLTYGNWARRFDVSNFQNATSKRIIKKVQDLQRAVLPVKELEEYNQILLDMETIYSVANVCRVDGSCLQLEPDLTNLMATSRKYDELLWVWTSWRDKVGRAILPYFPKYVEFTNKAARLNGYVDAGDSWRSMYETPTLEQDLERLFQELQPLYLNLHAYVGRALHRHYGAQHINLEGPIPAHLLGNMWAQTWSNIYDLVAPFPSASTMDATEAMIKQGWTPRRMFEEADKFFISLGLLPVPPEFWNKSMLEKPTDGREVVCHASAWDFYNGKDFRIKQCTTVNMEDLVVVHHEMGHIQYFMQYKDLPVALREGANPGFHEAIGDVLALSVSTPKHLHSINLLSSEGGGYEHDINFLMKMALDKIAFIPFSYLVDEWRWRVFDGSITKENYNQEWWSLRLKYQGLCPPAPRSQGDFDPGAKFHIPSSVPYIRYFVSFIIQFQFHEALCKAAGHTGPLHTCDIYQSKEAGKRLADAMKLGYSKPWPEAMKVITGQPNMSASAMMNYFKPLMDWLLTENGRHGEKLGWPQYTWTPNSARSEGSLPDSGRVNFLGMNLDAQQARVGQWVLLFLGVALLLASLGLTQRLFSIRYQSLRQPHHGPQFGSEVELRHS
From the text: N-[N^α-(3-Phenyl-2-S-mercaptopropanoyl)-S-lysyl]-thiazolidin-4-S-carbonsäure zeigt am Angiotensin I Converting Enzym in vitro eine Hemmaktivität IC50= 4,6 . 10^-9 [M]; die IC50 beträgt beim N-[N^αa-(3-Phenpl-2-S-mercaptopropanoyl)-S-lysyl]-S-prolin 2,7 . 10-^8 [M].
Als IC50 wird hierbei diejenige Hemmstoffkonzentration bezeichnet, bei der das Angiotensin I Converting Enzym zu 50 % gehemmt wird (s. H. S. Cheung, D. W. Cushman, Biochem. Biophys. Acta 293, 451 (1973)).

Angiotensin I = assay: Lowering of blood pressure raised by i.v. angiotensin I in the anaesthetised rat; assay type: in vivo, Ratte; details: anaesthetised rat, 0,3 mg/kg i.v.; blood pressure raised beforehand by 0,1 mg/kg Angiotensin I i.v.
Procedure: So erzeugt N-[N^α-(3-Phenyl-2-S-mercaptopropanoyl)-S-lysyl]-thiazolidin-4-S-carbonsäure an der narkotisierten Ratte in einer Dosierung von 0,3 mg/kg i.v. eine lang anhaltende Blutdrucksenkung von 60 %, wenn man vorher durch eine i.v.-Gabe von 0,1 mg/kg Angiotensin I den Blutdruck steigert; beim N-[N^a-(3-Phenyl-2-S-mercaptopropanoyl)S-lysyl]-S-prolin liegt der Wert bei gleichem Test bei 57 %.

Row | IC50 [1] [nM] | Molecule | lang anhaltende Blutdrucksenkung (Angiotensin I) [%]
1 | 4.6 | N-[N^α-(3-Phenyl-2-S-mercaptopropanoyl)-S-lysyl]-thiazolidin-4-S-carbonsäure [Beispiel 3] | 60
2 | – | NCCCC[C@H](NC(=O)[C@@H](S)Cc1ccccc1)C(=O)N1CCC[C@H]1C(=O)O [Beispiel 11] | 57
